ChEMBL document CHEMBL1148184, “Gloiosiphones A and B, Novel Metabolites from the Red Marine Alga Gloiosiphonia verticillaris” (J Nat Prod, 1993)
The source made the active and inactive calls.

Columns and labels:
Type in all cases: functional, organism-based
Staphylococcus aureus = experiment: Antibacterial activity against Staphylococcus aureus ATCC 12600
Bacillus subtilis = experiment: Antibacterial activity against Bacillus subtilis ATCC 6081
Salmonella typhimurium = experiment: Antibacterial activity against Salmonella Typhimurium ATCC 14028; details: Salmonella enterica subsp. enterica serovar Typhimurium
Escherichia coli = experiment: Antibacterial activity against Escherichia coli ATCC 11775

Measured: Activity

COC[C@@]1(O)C(=O)CC[C@@]12CC(OC)=C(OC)C2=O
inactive: all assays above

COCC1(O)OCCC1=O (stereo not drawn)
inactive: all assays above
